# Reference: patent US9511068B2, “Composition for treating or preventing diseases caused by vascular permeability, containing imatinib or pharmaceutically acceptable salt thereof as active ingredient” (AJOU UNIVERSITY INDUSTRY - ACADEMIC COOPERATION FOUNDATION, priority 2012, dated 2016)
# Where a name gives a salt, the structure may show the parent alone.
# System: retinal vascular permeability
# Assay: Retinal vascular permeability (FITC-dextran leakage) in STZ-induced diabetic retinopathy rat models
# Format: in vivo, Sprague Dawley (SD) rats
# Details: STZ 200 mg/kg i.p. rats; retina treated with 50, 100 or 250 μg imatinib mesylate at the same time as STZ; observed after 2 weeks by fluorescence microscope
# Experimental: Sprague Dawley (SD) rats were administered intraperitoneally with streptozotocin (STZ; Sigma) at a dose of 200 mg/kg (control group), or were injected with STZ while the retina of the animal models were treated with 50, 100 or 250 μg of imatinib mesylate (Novartis, Switzerland) (test groups).
# Meanwhile, after the animal models (control and test groups) were housed for 2 weeks, the animal models were anesthetized, and fluorescein isothiocyanate (FITC)-labeled dextran was injected intracardiacally so that the fluorescent substance flowed along the blood vessels.
compound,measurement,value
Cc1ccc(NC(=O)c2ccc(CN3CCN(C)CC3)cc2)cc1Nc1nccc(-c2cccnc2)n1 [imatinib mesylate],leak degree of the fluorescent substance (FITC-labeled dextran) in the retina / vascular permeability,significantly reduced
